Measured values reported in the supplement of paper PMC7017272.
± gives the standard deviation of the averaged measurements.

Assays:
Settings in all cases: treatment time: 3 days
UT-SCC-40 = experiment: maximal % inhibition of viability relative to DMSO; higher = stronger effect
Procedure: (§1)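 HNSCC cell lines (500 cells/well, 384-well) were cultured on plastic, on top of (2D) or embedded (3D) in Matrigel or human leiomyoma matrix Myogel (500 ug/mL; Myogel 3D mixed with rat collagen I). Cells were treated for 3 days with 5 ten-fold concentrations of each drug, and viability was read by CellTiter-Glo. Viability was normalised to DMSO and benzethonium chloride controls and fitted with the FIMM DSRT pipeline to give IC50 (nM), maximal % inhibition and DSS. Suffixes _1/_2/_3 are replicates. Only inhibition-mode (IC50) fits are kept.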

UT-SCC-81 = experiment: as above
Procedure: as §1

UT-SCC-14 [1] = experiment: as above
Procedure: as §1

UT-SCC-42A [2] = experiment: as above
Procedure: as §1

UT-SCC-8 = experiment: as above
Procedure: as §1

UT-SCC-106A [3] = experiment: as above
Procedure: as §1

UT-SCC-42B [4] = experiment: as above
Procedure: as §1

UT-SCC-24B = experiment: as above
Procedure: as §1

UT-SCC-44 = experiment: as above
Procedure: as §1

UT-SCC-73 = experiment: as above
Procedure: as §1

UT-SCC-28 = experiment: as above
Procedure: as §1

UT-SCC-24A [5] = experiment: drug sensitivity score (DSS); higher = more sensitive
Procedure: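 HNSCC cell lines (500 cells/well, 384-well) were cultured on plastic, on top of (2D) or embedded (3D) in Matrigel or human leiomyoma matrix Myogel (500 ug/mL; Myogel 3D mixed with rat collagen I). Cells were treated for 3 days with 5 ten-fold concentrations of each drug, and viability was read by CellTiter-Glo. Suffixes _1/_2/_3 on drug names are replicates.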

UT-SCC-14 [6] = experiment: drug sensitivity score (DSS); higher = more sensitive; extreme values may be limits of the assay
Method in brief: (§2)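 Using 384-well plates, 500 cells/well of HPV-negative HNSCC cell lines were grown on plastic, on 500 µg/mL Matrigel or Myogel coatings, or embedded in Matrigel or Myogel with rat collagen I. They were treated with compounds at five 10-fold concentrations for 3 days, and luminescence from CellTiter-Glo 2.0 was normalised to vehicle (0.1% DMSO) and cell-killing control wells. IC50, maximal inhibition and drug sensitivity score were derived from percent-inhibition dose–response curves in the FIMM pipeline.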

UT-SCC-42A [7] = experiment: as above
Method in brief: as §2

UT-SCC-106A [8] = experiment: as above
Method in brief: as §2

UT-SCC-42B [9] = experiment: as above
Method in brief: as §2

UT-SCC-24A [10] = experiment: relative IC50 (midpoint of the fitted curve; maximal inhibition may be below 50%); higher = less potent
Procedure: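 HNSCC cell lines (500 cells/well, 384-well) were cultured on plastic, on top of (2D) or embedded (3D) in Matrigel or human leiomyoma matrix Myogel (500 ug/mL; Myogel 3D mixed with rat collagen I). Cells were treated for 3 days with 5 ten-fold concentrations of each drug, and viability was read by CellTiter-Glo. Viability was normalised to DMSO (0% inhibition) and 100 uM benzethonium chloride (100% inhibition) controls and fitted with the FIMM DSRT pipeline to give IC50 (nM), maximal % inhibition and the drug sensitivity score (DSS). Suffixes _1/_2/_3 on drug names are replicates.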

[11] = culture condition: embedded in Matrigel
[12] = culture condition: embedded in Myogel + collagen I
[13] = culture condition: on top of Matrigel
[14] = culture condition: on top of Myogel
[15] = culture condition: plastic 2D (no matrix)

For `COc1ncc(-c2ccc3nccc(-c4ccnnc4)c3c2)cc1NS(=O)(=O)c1ccc(F)cc1F` [Omipalisib], the “maximal % inhibition of viability” value (UT-SCC-40; [11]) was 98.67 ± 0.4%, the “maximal % inhibition of viability” value (UT-SCC-40; [12]) was 89.9 ± 0.76% and the “maximal % inhibition of viability” value (UT-SCC-40; [13]) was 96.4 ± 1.7%. For the same compound, the “maximal % inhibition of viability” value (UT-SCC-40; [14]) was 85.8 ± 1.6%, the “maximal % inhibition of viability” value (UT-SCC-40; [15]) was 88.4 ± 2% and the “maximal % inhibition of viability” value (UT-SCC-81; [11]) was 97.77 ± 0.51%. For the same compound, the “maximal % inhibition of viability” value (UT-SCC-81; [12]) was 89.1 ± 0.91%, the “maximal % inhibition of viability” value (UT-SCC-81; [13]) was 96.83 ± 0.76% and the “maximal % inhibition of viability” value (UT-SCC-81; [14]) was 90.3 ± 1.4%. The “maximal % inhibition of viability” value (UT-SCC-81; [15]) was 91.9 ± 2.2%, the “maximal % inhibition of viability” value (UT-SCC-14 [1]; [11]) was 94.8 ± 1.1% and the “maximal % inhibition of viability” value (UT-SCC-14 [1]; [12]) was 92.2 ± 1.3%. The “maximal % inhibition of viability” value (UT-SCC-14 [1]; [13]) was 93.9 ± 1.9%, the “maximal % inhibition of viability” value (UT-SCC-14 [1]; [14]) was 90 ± 2.3% and the “maximal % inhibition of viability” value (UT-SCC-14 [1]; [15]) was 92.47 ± 0.81%. The “maximal % inhibition of viability” value (UT-SCC-42A [2]; [11]) was 97.27 ± 0.59%, the “maximal % inhibition of viability” value (UT-SCC-42A [2]; [12]) was 87.8 ± 1.7% and the “maximal % inhibition of viability” value (UT-SCC-42A [2]; [13]) was 96.13 ± 0.86%. The “maximal % inhibition of viability” value (UT-SCC-42A [2]; [14]) was 90.83 ± 0.76%, the “maximal % inhibition of viability” value (UT-SCC-42A [2]; [15]) was 92.7 ± 1.3% and the “maximal % inhibition of viability” value (UT-SCC-8; [11]) was 99.57 ± 0.25%. The “maximal % inhibition of viability” value (UT-SCC-8; [12]) was 98.2 ± 0.56%, the “maximal % inhibition of viability” value (UT-SCC-8; [13]) was 98.5 ± 1.1% and the “maximal % inhibition of viability” value (UT-SCC-8; [14]) was 96.8 ± 1%. The “maximal % inhibition of viability” value (UT-SCC-8; [15]) was 97.87 ± 0.61%, the “maximal % inhibition of viability” value (UT-SCC-106A [3]; [11]) was 79.7 ± 2.2% and the “maximal % inhibition of viability” value (UT-SCC-106A [3]; [12]) was 64.2 ± 3.3%. For the same compound, the “maximal % inhibition of viability” value (UT-SCC-106A [3]; [13]) was 81.2 ± 0.87%, the “maximal % inhibition of viability” value (UT-SCC-106A [3]; [14]) was 69.7 ± 2.8% and the “maximal % inhibition of viability” value (UT-SCC-106A [3]; [15]) was 81.53 ± 0.67%. The “maximal % inhibition of viability” value (UT-SCC-42B [4]; [11]) was 96.3 ± 0.7%, the “maximal % inhibition of viability” value (UT-SCC-42B [4]; [13]) was 91.1 ± 1.4% and the “maximal % inhibition of viability” value (UT-SCC-42B [4]; [14]) was 84 ± 1.2%. For the same compound, the “maximal % inhibition of viability” value (UT-SCC-42B [4]; [15]) was 86.7 ± 1.1%, the “maximal % inhibition of viability” value (UT-SCC-24B; [11]) was 95.6 ± 0.79% and the “maximal % inhibition of viability” value (UT-SCC-24B; [12]) was 96.6 ± 1.4%. For the same compound, the “maximal % inhibition of viability” value (UT-SCC-24B; [13]) was 94.8 ± 1.3%, the “maximal % inhibition of viability” value (UT-SCC-24B; [14]) was 92 ± 1.2% and the “maximal % inhibition of viability” value (UT-SCC-24B; [15]) was 96.27 ± 0.55%. The “maximal % inhibition of viability” value (UT-SCC-44; [11]) was 52.5 ± 1.9%, the “maximal % inhibition of viability” value (UT-SCC-44; [12]) was 58.5 ± 5.7% and the “maximal % inhibition of viability” value (UT-SCC-44; [13]) was 54.8 ± 4.2%. The “maximal % inhibition of viability” value (UT-SCC-44; [14]) was 62.1 ± 5.8%, the “maximal % inhibition of viability” value (UT-SCC-44; [15]) was 56 ± 3.9% and the “maximal % inhibition of viability” value (UT-SCC-73; [11]) was 91.2 ± 0.27%. The “maximal % inhibition of viability” value (UT-SCC-73; [12]) was 89.6 ± 3.3%, the “maximal % inhibition of viability” value (UT-SCC-73; [13]) was 90.7 ± 1.4% and the “maximal % inhibition of viability” value (UT-SCC-73; [14]) was 90 ± 1.3%. The “maximal % inhibition of viability” value (UT-SCC-73; [15]) was 87.9 ± 1.4%, the “maximal % inhibition of viability” value (UT-SCC-28; [11]) was 60.7 ± 5.8% and the “maximal % inhibition of viability” value (UT-SCC-28; [12]) was 83 ± 5.5%. For the same compound, the “maximal % inhibition of viability” value (UT-SCC-28; [13]) was 64.3 ± 4.8%, the “maximal % inhibition of viability” value (UT-SCC-28; [15]) was 60.8 ± 3.6% and the drug sensitivity score (UT-SCC-24A [5]; [11]) was 27 ± 2.8 DSS. For the same compound, the drug sensitivity score (UT-SCC-24A [5]; [12]) was 22.6 ± 1.6 DSS, the drug sensitivity score (UT-SCC-24A [5]; [13]) was 25.5 ± 1.2 DSS and the drug sensitivity score (UT-SCC-24A [5]; [14]) was 20.4 ± 1.8 DSS. It also gave a drug sensitivity score (UT-SCC-24A [5]; [15]) of 25 ± 1.6 DSS, a drug sensitivity score (UT-SCC-14 [6]; [11]) of 25.2 ± 1.2 DSS and a drug sensitivity score (UT-SCC-14 [6]; [12]) of 20.9 ± 3.1 DSS. For the same compound, the drug sensitivity score (UT-SCC-14 [6]; [13]) was 23.8 ± 0.57 DSS, the drug sensitivity score (UT-SCC-14 [6]; [14]) was 20.6 ± 0.78 DSS and the drug sensitivity score (UT-SCC-14 [6]; [15]) was 23.7 ± 2.6 DSS. It also gave a drug sensitivity score (UT-SCC-42A [7]; [11]) of 20.8 ± 3.1 DSS, a drug sensitivity score (UT-SCC-42A [7]; [12]) of 18.2 ± 0.85 DSS and a drug sensitivity score (UT-SCC-42A [7]; [13]) of 21.1 ± 2.2 DSS. The drug sensitivity score (UT-SCC-42A [7]; [14]) was 18.6 ± 0.96 DSS, the drug sensitivity score (UT-SCC-42A [7]; [15]) was 21.6 ± 2.3 DSS and the drug sensitivity score (UT-SCC-106A [8]; [11]) was 22.8 ± 0.99 DSS. It also gave a drug sensitivity score (UT-SCC-106A [8]; [12]) of 15.4 ± 0.89 DSS, a drug sensitivity score (UT-SCC-106A [8]; [13]) of 22.33 ± 0.15 DSS and a drug sensitivity score (UT-SCC-106A [8]; [14]) of 15 ± 1.2 DSS. It also gave a drug sensitivity score (UT-SCC-106A [8]; [15]) of 21.9 ± 0.46 DSS, a drug sensitivity score (UT-SCC-42B [9]; [11]) of 24.7 ± 1.2 DSS and a drug sensitivity score (UT-SCC-42B [9]; [13]) of 18.3 ± 1.2 DSS. For the same compound, the drug sensitivity score (UT-SCC-42B [9]; [14]) was 14.1 ± 1.2 DSS, the drug sensitivity score (UT-SCC-42B [9]; [15]) was 15.2 ± 0.4 DSS and the “relative IC50” value (UT-SCC-24A [10]; [11]) was 4.17 nM. The “relative IC50” value (UT-SCC-24A [10]; [12]) was 7 nM, the “relative IC50” value (UT-SCC-24A [10]; [13]) was 5.02 nM and the “relative IC50” value (UT-SCC-24A [10]; [14]) was 10.1 nM. The “relative IC50” value (UT-SCC-24A [10]; [15]) was 5.44 nM.
